A short description of series [1]: Formation of glucurono- and sulfoconjugates of ε-viniferin (50 µM, 40 min) with human liver S9 fractions. The following applies: human liver S9, ε-viniferin 50 µM. The class given is in vitro ADME. The procedure: (§1) After incubation of ε-viniferin (50 µM) for 40 min at 37 °C with either human (Figure 2a, lower panel) or rat (Figure 2b, lower panel) liver S9 fractions (2 mg/mL) in the presence of different phase II cofactor(s), i.e., 3′-phosphoadenosine-5′-phosphosulfate (PAPS) and UDPGA, eight metabolites were found using UPLC-DAD-MS. These metabolites were further identified by comparison with the UPLC retention times and mass spectra of the authentic chemical standards that were obtained by chemical hemi-synthesis (Figure 1a). These eight compounds were the four glucuronoconjugates (MG1, MG2, MG3, and MG4) and the four sulfoconjugates (MS1, MS2, MS3, and MS4). These metabolites were absent in the control condition, i.e., in the presence of liver S9 fractions and in the absence of phase II cofactors (data not shown).
(§2) Samples from either chemical hemi-synthesis or metabolic reactions were carried using a 1290 Infinity UPLC (Agilent Technologies, Courtaboeuf, France). The UPLC was coupled to an Esquire 3000 Plus ion trap mass spectrometer using an ESI source (Bruker-Daltonics, Billerica, MA, USA). 2 µL were injected into an Agilent SB-C18 column (1.8 µm, 2.1 × 100 mm). Samples were eluted with solvent A (H2O 0.1% FA) and solvent B (acetonitrile 0.1% FA) by the following gradient program: 0–1.7 min, 10% B; 1.7–3.4 min, 10–20% B; 3.4–5.1 min, 20–30% B; 5.1–7.8 min, 30% B; 7.8–8.5 min, 30–35% B; 8.5–11.9 min, 35–60% B; 11.9–15.3 min, 60–100% B; 15.3–17 min, 100% B; 17–17.3 min, 100–10% B. The flow rate was set to 0.4 mL/min and the UV detector was set at the wavelength 320 nm. Total ion chromatograms were obtained using negative mode with a range of m/z 130–1400. The parameters were: capillary voltage, +4 kV; nebulizer pressure, 40 psi; dry gas, 10 L/min; dry temperature, 365 °C. Data analysis was performed with Bruker Data Analysis 3.2 (Bruker-Daltonics, Billerica, MA, USA). Metabolite concentrations were expressed as an equivalent of the ε-viniferin standard curve.
(§3) The incubation conditions were optimized by preliminary experiments to ensure the formation rates of metabolites were linear over the incubation time and at the concentration of protein added. Sulfation was investigated by incubating human or rat liver S9 fractions (2 mg/mL) with ε-viniferin at different concentrations (5 to 300 µM) in Tris-HCl buffer (50 mM, pH 7.4), in the presence of PAPS (1 mM), DTT (10 mM), MgCl2 (5 mM) in a final volume of 100 µL. After 40 min at 37 °C, the reaction was stopped with 100 µL of methanol to precipitate the protein. Glucuronidation was investigated by incubating human or rat liver S9 fractions (2 mg/mL) with ε-viniferin at different concentrations (5 to 300 µM) in Tris-HCl buffer (50 mM, pH 7.4), in the presence of UDPGA (1 mM), alamethicin (25 µg/mL), and MgCl2 (5 mM) in a final volume of 100 µL. After 40 min at 37 °C, the reaction was stopped with 100 µL of methanol to precipitate the protein. Samples from sulfation and glucuronidation were then centrifuged for 30 min (14,000× g, 4 °C), and the resultant supernatants were analyzed using UPLC-DAD-MS as described above. The kinetic model that was used to analyze the results was substrate inhibition. Kinetic parameters, i.e., Vmax and Km were obtained using GraphPad Prism software (La Jolla, CA, USA). Results are expressed as mean ± sem of three independent experiments.

The nature of series [2]: Glucuronidation of ε-viniferin by human liver S9 fractions (UDPGA). The following applies: for Vmax: formation of the glucuronide from ε-viniferin, human liver S9, mean ± SEM, n=3; for relative abundance among the glucuronides (UPLC-DAD profile): human liver S9 2 mg/mL, ε-viniferin 50 µM, UDPGA, 40 min, 37 °C. It is filed as in vitro ADME. How it is done:
as §1, §2, §3
(§4) V = (Vmax × [S])/(Km + [S] + [S]^2/Ki),
(§5) Vmax: maximal velocity; Km: substrate affinity constant; [S]: substrate concentration; Ki: substrate inhibition constant.

Series [3] is described as follows: Glucuronidation of ε-viniferin by rat liver S9 fractions (UDPGA). The class given is in vitro ADME. The following applies: for Vmax: formation of the glucuronide from ε-viniferin, rat liver S9, mean ± SEM, n=3. The procedure: as §1, §2, §3
(§6) V = (Vmax × [S])/(Km + [S] + [S]^2/Ki), […]

Series [4] can be described thus: Formation of glucurono- and sulfoconjugates of ε-viniferin (50 µM, 40 min) with rat liver S9 fractions. It is filed as in vitro ADME. The following applies: rat liver S9, ε-viniferin 50 µM. The procedure:
as §1, §2, §3

A short description of series [5]: Sulfation of ε-viniferin by human liver S9 fractions (PAPS). The class given is in vitro ADME. The following applies: for Vmax: formation of the sulfate from ε-viniferin, human liver S9, mean ± SEM, n=3; for relative abundance among the sulfoconjugates (UPLC-DAD profile): human liver S9 2 mg/mL, ε-viniferin 50 µM, PAPS, 40 min, 37 °C. The procedure: as §1, §2, §3, §6

Series [6] can be described thus: Sulfation of ε-viniferin by rat liver S9 fractions (PAPS). The class given is in vitro ADME. The following applies: for Vmax: formation of the sulfate from ε-viniferin, rat liver S9, mean ± SEM, n=3; for relative abundance among the sulfoconjugates (UPLC-DAD profile): rat liver S9 2 mg/mL, ε-viniferin 50 µM, PAPS, 40 min, 37 °C. How it is done: as §1, §2, §3, §4, §5

The conditions of series [7]: rat, in vivo; cited from earlier work.
Details of series [8]: method as in PMID 27902942. The following applies: mice, oral administration; cited from earlier work.

SMILES strings stand for the structures. Where “and” joins values, the source holds several entries; their conditions need not be identical. Equal values may be shown once. Read-outs that look alike come from different tables or passages of the source.

With `O=C(O)C1OC(Oc2cc(/C=C/c3ccc(O)cc3)c3c(c2)OC(c2ccc(O)cc2)C3c2cc(O)cc(O)c2)C(O)C(O)C1O` (stereo not shown) [MG1], the entries for the “percentage of each metabolite relative to the total amount of ε-viniferin metabolites formed by glucuronidation” value in series [1] and in series [4] were “MG1: 54.6 ± 2.4%” and “MG1: 91.1 ± 2.4%”, respectively. Further, the values for the Vmax in series [2] and in series [3] were 11.27 ± 1.30 pmol/min/mg protein and 548.90 ± 86.17 pmol/min/mg protein, respectively. Besides, the “relative abundance among the glucuronides (UPLC-DAD profile)” value in series [2] is reported as “major metabolites”; in series [3] (rat liver S9 2 mg/mL, ε-viniferin 50 µM, UDPGA, 40 min, 37 °C) it was “major metabolite”.
Consider `O=C(O)C1OC(Oc2ccc(/C=C/c3cc(O)cc4c3C(c3cc(O)cc(O)c3)C(c3ccc(O)cc3)O4)cc2)C(O)C(O)C1O` (stereo not shown) [MG2], for which the “percentage of each metabolite relative to the total amount of ε-viniferin metabolites formed by glucuronidation” value in series [1] was “MG2: 5.0 ± 1.2%”; in series [4] it was “MG2: 1.1 ± 0.2%”. Further, the Vmax is listed as 2.54 ± 0.16 pmol/min/mg protein in series [2] and 12.49 ± 1.13 pmol/min/mg protein in series [3].
The like results for `O=C(O)C1OC(Oc2ccc(C3Oc4cc(O)cc(/C=C/c5ccc(O)cc5)c4C3c3cc(O)cc(O)c3)cc2)C(O)C(O)C1O` (stereo not shown) [MG3] were, in that order, “MG3: 8.9 ± 0.5%”, “MG3: 0.7 ± 0.0%”, 0.78 ± 0.06 pmol/min/mg protein and 3.06 ± 0.14 pmol/min/mg protein.
For `O=C(O)C1OC(Oc2cc(O)cc(C3c4c(/C=C/c5ccc(O)cc5)cc(O)cc4OC3c3ccc(O)cc3)c2)C(O)C(O)C1O` (stereo not shown) [MG4], the “percentage of each metabolite relative to the total amount of ε-viniferin metabolites formed by glucuronidation” value in series [1] is “MG4: 31.5 ± 0.9%”; in series [4], “MG4: 7.1 ± 0.1%”. Besides, the Vmax in series [2] was 4.91 ± 0.78 pmol/min/mg protein; in series [3], 43.99 ± 5.49 pmol/min/mg protein. Also, in series [2], the “relative abundance among the glucuronides (UPLC-DAD profile)” value is reported as “major metabolites”.
Consider `O=S(=O)(O)Oc1cc(/C=C/c2ccc(O)cc2)c2c(c1)OC(c1ccc(O)cc1)C2c1cc(O)cc(O)c1` (stereo not shown) [MS1], for which the “percentage of each metabolite relative to the total amount of ε-viniferin metabolites formed by sulfation” value is listed as “MS1: 75.2 ± 3.8%” in series [1] and “MS1: 38.0 ± 1.4%” in series [4]. Also, the Vmax in series [5] was found to be 361.60 ± 13.09 pmol/min/mg protein; in series [6] it was 25.16 ± 2.29 pmol/min/mg protein. The “relative abundance among the sulfoconjugates (UPLC-DAD profile)” value in series [5] is “major metabolite”; in series [6] it was “almost equal amounts”.
Consider `O=S(=O)(O)Oc1ccc(/C=C/c2cc(O)cc3c2C(c2cc(O)cc(O)c2)C(c2ccc(O)cc2)O3)cc1` (stereo not shown) [MS2], for which the “percentage of each metabolite relative to the total amount of ε-viniferin metabolites formed by sulfation” value in series [1] is reported as “MS2: 24.8 ± 1.2%”; in series [4], “MS2: 23.5 ± 3.1%”. For the same compound, the Vmax in series [5] is 30.46 ± 0.96 pmol/min/mg protein; in series [6] it was 8.46 ± 0.89 pmol/min/mg protein. The “relative abundance among the sulfoconjugates (UPLC-DAD profile)” value in series [6] is “almost equal amounts”.
As for `O=S(=O)(O)Oc1ccc(C2Oc3cc(O)cc(/C=C/c4ccc(O)cc4)c3C2c2cc(O)cc(O)c2)cc1` (stereo not shown) [MS3], the “percentage of each metabolite relative to the total amount of ε-viniferin metabolites formed by sulfation” value in series [1] is listed as “MS3: 0%”; in series [4] it was “MS3: 22.0 ± 1.9%”. The “relative abundance among the sulfoconjugates (UPLC-DAD profile)” value is on record as “trace amount” in series [5] and “almost equal amounts” in series [6]. The Vmax in series [6] turned out to be 13.47 ± 1.10 pmol/min/mg protein.
For the compound `O=S(=O)(O)Oc1cc(O)cc(C2c3c(/C=C/c4ccc(O)cc4)cc(O)cc3OC2c2ccc(O)cc2)c1` (stereo not shown) [MS4], the “percentage of each metabolite relative to the total amount of ε-viniferin metabolites formed by sulfation” value is recorded as “MS4: 0%” in series [1] and “MS4: 16.4 ± 1.3%” in series [4]. Also, the “relative abundance among the sulfoconjugates (UPLC-DAD profile)” value in series [5] is on record as “trace amount”; in series [6] it was “almost equal amounts”. Further, in series [6], the Vmax came to 36.79 ± 3.94 pmol/min/mg protein.
As to `Oc1ccc([C@H]2Oc3ccc(/C=C/c4cc(O)cc(O)c4)cc3[C@@H]2c2cc(O)cc(O)c2)cc1` [δ-viniferin], in series [7], the oral bioavailability is reported as 2.3%.
Take `Oc1ccc(/C=C/c2cc(O)cc3c2[C@@H](c2cc(O)cc(O)c2)[C@H](c2ccc(O)cc2)O3)cc1` [ε-viniferin, ε-Viniferin]: in series [8], the oral bioavailability is 0.77%. In addition, in series [1], the “Glucuronidation (%)” value is 29.1% and 29.1 ± 1.2%; the “Sulfatation (%)” value was 43.6% and 43.6 ± 1.8%. Also, in series [4], the “Sulfatation (%)” value was 4.3% and 4.3 ± 0.3%; the “ε-viniferin conversion (%)” value was 78.1 ± 0.9%.

Source of the values: paper PMC6154661, “In Vitro Glucuronidation and Sulfation of ε-Viniferin, a Resveratrol Dimer, in Humans and Rats” (Molecules : A Journal of Synthetic Chemistry and Natural …, 2017).
